# Where two headings read alike, the source gives them in different places.
# Assays:
# PKMYT1 = target: T1, PKMYT1 (Homo sapiens, UniProt Q99640); assay: ADP-Glo PKMYT1 ATP-depletion assay; details: 50 nM PKMYT1, 13.3 nM CDK1, read-out: Biochemical IC50
# T1 construct: PKMYT1 (93 kD, full length, N-terminal GST tag from Signal Chem); GST (N); purchased Signal Chem
# T1 sequence (Q99640 1-499): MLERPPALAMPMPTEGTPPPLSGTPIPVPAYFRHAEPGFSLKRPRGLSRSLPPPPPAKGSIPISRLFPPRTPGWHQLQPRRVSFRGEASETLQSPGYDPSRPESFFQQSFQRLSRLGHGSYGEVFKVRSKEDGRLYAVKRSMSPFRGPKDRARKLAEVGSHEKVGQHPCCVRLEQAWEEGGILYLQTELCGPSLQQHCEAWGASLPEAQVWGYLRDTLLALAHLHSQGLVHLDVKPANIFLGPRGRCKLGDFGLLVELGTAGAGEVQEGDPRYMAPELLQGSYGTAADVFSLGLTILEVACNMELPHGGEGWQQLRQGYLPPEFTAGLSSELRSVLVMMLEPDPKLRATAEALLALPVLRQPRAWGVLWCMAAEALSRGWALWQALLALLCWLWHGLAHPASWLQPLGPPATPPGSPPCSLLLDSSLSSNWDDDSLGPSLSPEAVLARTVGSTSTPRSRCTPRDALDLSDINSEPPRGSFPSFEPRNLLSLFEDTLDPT
# Summary of the method: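 Full-length N-terminal GST-tagged PKMYT1 (50 nM) with GST-CDK1 (13.3 nM) as substrate and 88 µM ATP, in Hepes buffer with MgCl2, MnCl2, DTT and BSA; DMSO <1%. Incubated 120 min at RT. ADP formed was quantified by ADP-Glo luminescence and used to derive biochemical IC50.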
# [1] = test system: phosphorylation of CDK1 at Thr14 in HCC1806 cells; assay: Cell lysate AlphaLISA assay measuring inhibition of phosphorylation of CDK1 Thr14; type: cell-based; details: read-out: Cellular IC50
# Summary of the method: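 HCC1806 cells seeded overnight, then treated 4 h at 37 °C, 5% CO2 with compounds in DMSO; washed and lysed, lysates frozen overnight at −80 °C. CDK1 Thr14 phosphorylation read by AlphaLISA SureFire Ultra; data normalized to DMSO (0% inhibition) and 3 μM reference compound to give IC50.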
SMILES,IC50 (PKMYT1),"IC50 ([1]; Homo sapiens, HCC1806, 4 h)",IC50 ([1]; 4 hours)
NC(=O)c1cc2nccnc2c(-c2cccc3sncc23)c1N [Compound 214],500 to 1000 nM,≥ 5 µM,–
NC(=O)c1cc2nccnc2c(-c2cc(O)ccc2C(F)(F)F)c1N [Compound 215],≥ 5000 nM,≥ 5 µM,–
NC(=O)c1cc2nccnc2c(-c2cccn3cncc23)c1N [Compound 216],1000 to 5000 nM,≥ 5 µM,–
Cc1cnc2c(-c3c(C)ccc(O)c3C)c(N)c(C(N)=O)cc2n1 [Compound 217],< 50 nM,–,0.05 to 0.5 µM
Cc1c(O)cccc1-c1c(N)c(C(N)=O)cc2c1ncc(=O)n2C [Compound 219],1000 to 5000 nM,≥ 5 µM,–
NC(=O)c1nc2cccnc2c(-c2c(F)ccc3[nH]ncc23)c1N [Compound 220],50 to 500 nM,–,1 to 5 µM
Cc1cc(CO)ccc1-c1c(N)c(C(N)=O)nc2cccnc12 [Compound 221],≥ 5000 nM,≥ 5 µM,–
Cc1c(F)cncc1C1=c2ncccc2=NC(C(N)=O)C1N (centres unmarked) [Compound 225],≥ 5000 nM,–,≥ 5 µM
Cc1c(F)cncc1C1=c2ncccc2=NC(C(N)=O)C1N (centres unmarked) [Compound 226],< 50 nM,–,0.5 to 1 µM
Cc1c(-c2c(N)c(C(N)=O)cc3nccnc23)ccc(F)c1O [Compound 227],< 50 nM,0.05 to 0.5 µM,–
Cc1nc(F)ccc1-c1c(N)c(C(N)=O)nc2cccnc12 [Compound 228],≥ 5000 nM,≥ 5 µM,–
COc1cnc(F)c(-c2c(N)c(C(N)=O)nc3cccnc23)c1 [Compound 229],1000 to 5000 nM,≥ 5 µM,–
NC(=O)c1nc2cccnc2c(-c2cncc3sccc23)c1N [Compound 230],50 to 500 nM,1 to 5 µM,–
COc1ncncc1-c1c(N)c(C(N)=O)nc2cccnc12 [Compound 231],500 to 1000 nM,≥ 5 µM,–
Cc1ncncc1-c1c(N)c(C(N)=O)nc2cccnc12 [Compound 232],1000 to 5000 nM,≥ 5 µM,–
Cc1c(O)cccc1-c1ccnc2nc(C(N)=O)c(N)cc12 [Compound 233],1000 to 5000 nM,≥ 5 µM,–

SMILES,IC50 (PKMYT1),"IC50 ([1]; Homo sapiens, HCC1806, 4 h)",IC50 ([1]; 4 hours)
Cc1cnc2[nH]ncc2c1-c1c(N)c(C(N)=O)cc2nccnc12 [Compound 234],≥ 5000 nM,≥ 5 µM,–
N#Cc1cccc2nc(C(N)=O)c(N)c(-c3cncnc3)c12 [Compound 236],1000 to 5000 nM,≥ 5 µM,–
Cc1c(O)cccc1-c1c(N)c(C(N)=O)nc2ncccc12 [Compound 237],50 to 500 nM,1 to 5 µM,–
COc1cc(-c2c(N)c(C(N)=O)nc3cccnc23)cnc1C [Compound 238],1000 to 5000 nM,≥ 5 µM,–
Cc1c(Cl)cncc1C1=c2ncccc2=NC(C(N)=O)C1N (centres unmarked) [Compound 239],≥ 5000 nM,–,≥ 5 µM
Cc1c(Cl)cncc1C1=c2ncccc2=NC(C(N)=O)C1N (centres unmarked) [Compound 240],< 50 nM,–,0.05 to 0.5 µM
Cc1c(O)cccc1-c1c(N)c(C(N)=O)cc2nccc(C#N)c12 [Compound 241],< 50 nM,< 0.05 µM,–
Cc1c(O)cc(Cl)cc1-c1c(N)c(C(N)=O)nc2cccnc12 [Compound 248],50 to 500 nM,–,1 to 5 µM
Cc1c(CO)cccc1-c1c(N)c(C(N)=O)nc2cccnc12 [Compound 249],≥ 5000 nM,≥ 5 µM,–
NC(=O)c1nc2cccnc2c(-c2cccc3occc23)c1N [Compound 250],≥ 5000 nM,≥ 5 µM,–
Cc1ccc(O)c(C)c1-c1c(N)c(C(N)=O)cc2nc(-c3cnn(C)c3)cnc12 [Compound 251],< 50 nM,0.5 to 1 µM,–
Cc1c(-c2c(N)c(C(N)=O)cc3nccnc23)ccc2[nH]cnc12 [Compound 252],≥ 5000 nM,≥ 5 µM,–
NC(=O)c1nc2cccnc2c(-c2cncnc2C(F)(F)F)c1N [Compound 253],1000 to 5000 nM,≥ 5 µM,–
Cc1ccc(C#N)cc1-c1c(N)c(C(N)=O)nc2cccnc12 [Compound 254],≥ 5000 nM,≥ 5 µM,–
Cc1ncc(O)c(C)c1-c1c(N)c(C(N)=O)nc2cccnc12 [Compound 256],1000 to 5000 nM,≥ 5 µM,–

# Source: patent US20260176270A1 (Exelixis, Inc., priority 2022, published 2026)
